Patent US10961187B2, “Substituted N-acetyl-L-cysteine derivatives and related compounds” (Promentis Pharmaceuticals, Inc., priority 2013, dated 2021)
Blank lines part the entries; values can stand above or below the molecule they belong to.

What was measured:
[1] = target: T1, System xc− (Homo sapiens, UniProt Q9UPY5); assay: 14C-cystine uptake in human glial cells from brain astrocytoma (1321N1); assay type: cell-based; conditions: 1321N1 cells
T1 construct: in vitro culture system of human glial cells from brain astrocytoma (1321N1); endogenous in cells; host or cells: 1321N1 human astrocytoma cells
T1 sequence (Q9UPY5 1-501): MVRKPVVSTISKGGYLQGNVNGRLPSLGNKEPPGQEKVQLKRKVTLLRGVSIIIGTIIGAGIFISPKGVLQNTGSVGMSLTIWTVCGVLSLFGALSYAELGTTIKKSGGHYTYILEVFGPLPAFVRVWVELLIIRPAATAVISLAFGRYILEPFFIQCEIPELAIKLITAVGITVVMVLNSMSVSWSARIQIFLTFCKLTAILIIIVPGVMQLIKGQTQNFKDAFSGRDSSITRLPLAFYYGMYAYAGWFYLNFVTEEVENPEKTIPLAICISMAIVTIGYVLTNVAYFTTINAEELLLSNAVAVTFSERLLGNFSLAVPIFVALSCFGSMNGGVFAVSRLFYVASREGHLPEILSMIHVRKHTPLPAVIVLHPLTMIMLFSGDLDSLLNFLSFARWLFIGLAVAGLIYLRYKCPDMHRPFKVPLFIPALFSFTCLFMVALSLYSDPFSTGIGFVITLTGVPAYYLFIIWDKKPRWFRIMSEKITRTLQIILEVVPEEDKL
T1 sequence (P08195 1-529 partner): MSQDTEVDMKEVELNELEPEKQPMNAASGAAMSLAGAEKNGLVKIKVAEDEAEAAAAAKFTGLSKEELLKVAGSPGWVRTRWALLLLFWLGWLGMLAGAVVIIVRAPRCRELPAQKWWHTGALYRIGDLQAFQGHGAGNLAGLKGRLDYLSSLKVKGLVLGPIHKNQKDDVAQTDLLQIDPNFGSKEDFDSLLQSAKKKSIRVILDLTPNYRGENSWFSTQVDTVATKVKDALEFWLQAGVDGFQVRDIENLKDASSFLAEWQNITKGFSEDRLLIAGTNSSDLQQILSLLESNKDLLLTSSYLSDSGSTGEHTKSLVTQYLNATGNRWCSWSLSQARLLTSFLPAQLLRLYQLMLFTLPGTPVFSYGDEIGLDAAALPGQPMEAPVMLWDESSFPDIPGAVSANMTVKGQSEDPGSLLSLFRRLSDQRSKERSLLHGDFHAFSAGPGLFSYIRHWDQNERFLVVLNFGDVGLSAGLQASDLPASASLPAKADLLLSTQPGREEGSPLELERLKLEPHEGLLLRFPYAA
Description: The goal of these experiments was to determine ^14C-cystine uptake.
The screening of compounds was performed using an in vitro culture system of human glial cells from brain astrocytoma (1321N1). Cells were plated on 24 well plates coated with poly-D-lysine and laminin and grown in a balanced salt solution supplemented with 5% heat inactivated horse serum, 5% fetal bovine serum, 2 mM glutamine and glucose (total 21 mM). Cultures were maintained in humidified 5% CO2 incubators at 37° C. for 3-4 days before experiments were performed, at this time the cultures has formed a single confluent layer. For experiments, cultures were washed 3 times into a Na-free HEPES and HCO3^− buffered balanced salt solution. After 1 hour, the test compounds are added. Following a three hour incubation, ^14C-cystine (0.025 mCi/mL) was then added for 20 minutes. Following the ^14C-cystine exposure, cultures were washed 3 times with ice cold HEPES buffered saline solution and dissolved in 250 μl sodium dodecyl sulfate (0.1%). An aliquot (200 μl) was removed and added to scintillation fluid for counting. Values were normalized to ^14C-cystine uptake in untreated controls on the same experimental plate.

[2] = tested on: mixed cortical cell cultures containing glial and neuronal cells; assay: In vitro thiol experiment: intracellular cysteine levels; assay type: cell-based, mice; conditions: for intracellular cysteine concentration: raw concentration in collected samples
Description: To further resolve by what process the inhibition of ^14C-cystine uptake is occurring intracellular cysteine levels were determined.
Mixed cortical cell cultures containing glial and neuronal cells were prepared from fetal (15-16 day gestation) mice as previously described. (Lobner D, “Comparison of the LDH and MTT assays for quantifying cell death: validity for neuronal apoptosis?,” J. Neurosci. Methods, 96(2): 147-152 (Mar. 15, 2000)). Dissociated cortical cells were plated on 24-well plates coated with poly-D-lysine and laminin in Eagles' Minimal Essential Medium (MEM, Earle's salts, supplied glutamine-free) supplemented with 5% heat-inactivated horse serum, 5% fetal bovine serum, 2 mM glutamine and glucose (total 21 mM). Cultures were maintained in humidified 5% CO2 incubators at 37° C. Mice were handled in accordance with a protocol approved by our institutional animal care committee and in compliance with the Public Health service Policy on Humane Care and Use of Laboratory Animals.
Mixed cortical cell cultures, 14 days in vitro (this allows for a confluent layer of astrocytes to form and the neurons to generate a complex network of axons and dendrites), were washed into bicarbonate buffered salt solution. After 1 hour, 3, 10, 30, 100 μM of Pro-4047 or Pro-4051 was added and the cells were incubated for 30 or 90 minutes, after which the cells were thoroughly washed and the collected in 250 μL of aqueous mobile phase (50 mM citric acid, 10 mM octanesulfonic acid, pH 2.8) was added, after 10 minutes at 37° C. the cells were scraped from the plates and transferred to 1.5 mL tubes for analysis.
Samples were then sonicated with a Fisher Scientific 60 Sonic Dismembrator. One fraction of this homogenate was analyzed with the Pierce BCA (bicinchoninic acid) method to determine protein concentration. The other fraction was filtered using 3 K molecular weight cutoff, polyethersulfone centrifugal protein filters, and analyzed for thiol content using HPLC (ALF-115 column, 150×1.0 mm, 3 μm C18 [Pro-2023 analysis utilized a Phenomenex Kinetex 2.6 μM, C18, 100 A, 150×2.1 mm and Pro-4047 analysis utilized a Phenomenex Kinetex X-B, C18, 100 A, 2.6 μm, 150×4.4 mm]; mobile phase: 50 mM citric acid, 10 mM octanesulfonic acid, 2% acetonitrile, pH 2.8, 50 μL/min flow rate [Pro-2023 analysis utilized a 100 μL/min flow rate and Pro-4047 analysis utilized 1% acetonitrile and 0.4 mL/min flow rate] with electrochemical detection (Decade II, Au working electrode, Flex Cell HyREF, 0.55V, Antec Leyden, Netherlands [Pro-4047 analysis utilized a Magic Diamond working electrode and 1.8V]).
When the intracellular thiol assay was initiated, all data was normalized to protein concentration. […] The data presented herein represents the raw cysteine concentrations in the collected samples. […] Pro-4006 at 10 μM increases intracellular cysteine concentration to 0.07 μM at 30 minutes (approximately 3.5 times that of the control; FIG. 11). […] Pro-4047 at 300 μM increases intracellular cysteine concentration to 0.74 μM at 90 minutes (approximately 4.9 times that of the control; FIG. 13). […] Thus, based on the 3 in vitro experiments it is apparent that Pro-2023, Pro-4006, Pro-4011, Pro-4047, Pro-4051 and Pro-4051a behave as effective cysteine prodrugs.

inhibition at 1000 µM ([1]; 1000 μM, three hour incubation, read-out: decrease (inhibition) in 14C-cystine uptake): ~45%
Structure (SMILES): CC(=O)N[C@@H](CSC(=O)c1ccc(C)cc1)C(=O)O [Pro-2023, (2R)-2-Acetylamino-3-(4-methyl-benzoylsulfanyl)-propionic acid]
intracellular cysteine, times that of the control ([2]; 100 μM compound, 30 minutes): approximately 1.6 times | intracellular cysteine concentration ([2]; 100 μM compound, 30 minutes): 0.16 µM

decrease in 14C-cystine uptake ([1]; over the concentrations tested, dose-dependent): 20-60%
Structure (SMILES): CCOC(=O)[C@H](CSC(=O)C1CSC(=O)N1)NC(C)=O (stereo partly drawn) [Pro-4047, Ethyl (2R)-2-acetamido-3-(2-oxo-1,3-thiazolidine-4-carbonylsulfanyl) propanoate]
intracellular cysteine, times that of the control ([2]; 300 μM compound, 90 minutes): approximately 4.9 times | intracellular cysteine concentration ([2]; 300 μM compound, 90 minutes): 0.74 µM

decrease in 14C-cystine uptake ([1]; 100 μM (most effective concentration), average of three experiments): approximately 28%
Structure (SMILES): CCOC(=O)[C@H](CSC(=O)c1ccc(C)cc1)NC(C)=O [Pro-4051, Ethyl (2R)-2-acetamido-3-(4-methylbenzoylsulfanyl)propanoate]
intracellular cysteine, times that of the control ([2]; 100 μM compound, 90 minutes): approximately 4 times | intracellular cysteine concentration ([2]; 100 μM compound, 90 minutes): 0.36 µM
